Data as given in patent US10584128B2, “Bicyclic dihydropyrimidine-carboxamide derivatives as Rho-Kinase inhibitors” (CHIESI FARMACEUTICI S.p.A., priority 2016, dated 2020).

Experiments:
[1] = biological target: Rho kinase 1 (Homo sapiens, UniProt Q13464); experiment: In vitro Rho kinase inhibitory activity assay (ADP-Glo kit, Myelin Basic Protein substrate); assay type: biochemical; conditions: 10 μM ATP, 25° C., read-out: ROCK1 inhibitory activity (Ki, range of activity)
Description: (§1) The effectiveness of compounds of the present invention to inhibit Rho kinase activity can be determined in a 10 μl assay containing 40 mM Tris pH7.5, 20 mM MgCl2 0.1 mg/ml BSA, 50 μM DTT and 2.5 μM peptide substrate (Myelin Basic Protein) using an ADP-Glo kit (Promega). Compounds were dissolved in DMSO such that the final concentration of DMSO was 1% in the assay. All reactions/incubations are performed at 25° C. Compound (2 ul) and either Rho kinase 1 or 2 (4 μl) were mixed and incubated for 30 mins. Reactions were initiated by addition of ATP (4 μl) such that the final concentration of ATP in the assay was 10 μM. After a 1 hour incubation 10 μl of ADP-Glo Reagent was added and after a further 45 minute incubation 20 ul of Kinase Detection Buffer was added and the mixture incubated for a further 30 minutes. The luminescent signal was measured on a luminometer. […] Compounds were tested in dose-response format and the inhibition of kinase activity was calculated at each concentration of compound. To determine the IC50 (concentration of compound required to inhibit 50% of the enzyme activity) data were fit to a plot of % inhibition vs Log10 compound concentration using a sigmoidal fit with a variable slope and fixing the maximum to 100% and the minimum to 0%. To determine the Ki values the Cheng-Prusoff equation was utilized (Ki=IC50/(1+[S]/Km).

[2] = biological target: Rho kinase 2 (Homo sapiens, UniProt O75116); experiment: as above; assay type: biochemical; conditions: 10 μM ATP, 25° C., read-out: ROCK2 inhibitory activity (Ki, range of activity)
Description: as §1

Rho kinase 1, sequence (Q13464 whole entry): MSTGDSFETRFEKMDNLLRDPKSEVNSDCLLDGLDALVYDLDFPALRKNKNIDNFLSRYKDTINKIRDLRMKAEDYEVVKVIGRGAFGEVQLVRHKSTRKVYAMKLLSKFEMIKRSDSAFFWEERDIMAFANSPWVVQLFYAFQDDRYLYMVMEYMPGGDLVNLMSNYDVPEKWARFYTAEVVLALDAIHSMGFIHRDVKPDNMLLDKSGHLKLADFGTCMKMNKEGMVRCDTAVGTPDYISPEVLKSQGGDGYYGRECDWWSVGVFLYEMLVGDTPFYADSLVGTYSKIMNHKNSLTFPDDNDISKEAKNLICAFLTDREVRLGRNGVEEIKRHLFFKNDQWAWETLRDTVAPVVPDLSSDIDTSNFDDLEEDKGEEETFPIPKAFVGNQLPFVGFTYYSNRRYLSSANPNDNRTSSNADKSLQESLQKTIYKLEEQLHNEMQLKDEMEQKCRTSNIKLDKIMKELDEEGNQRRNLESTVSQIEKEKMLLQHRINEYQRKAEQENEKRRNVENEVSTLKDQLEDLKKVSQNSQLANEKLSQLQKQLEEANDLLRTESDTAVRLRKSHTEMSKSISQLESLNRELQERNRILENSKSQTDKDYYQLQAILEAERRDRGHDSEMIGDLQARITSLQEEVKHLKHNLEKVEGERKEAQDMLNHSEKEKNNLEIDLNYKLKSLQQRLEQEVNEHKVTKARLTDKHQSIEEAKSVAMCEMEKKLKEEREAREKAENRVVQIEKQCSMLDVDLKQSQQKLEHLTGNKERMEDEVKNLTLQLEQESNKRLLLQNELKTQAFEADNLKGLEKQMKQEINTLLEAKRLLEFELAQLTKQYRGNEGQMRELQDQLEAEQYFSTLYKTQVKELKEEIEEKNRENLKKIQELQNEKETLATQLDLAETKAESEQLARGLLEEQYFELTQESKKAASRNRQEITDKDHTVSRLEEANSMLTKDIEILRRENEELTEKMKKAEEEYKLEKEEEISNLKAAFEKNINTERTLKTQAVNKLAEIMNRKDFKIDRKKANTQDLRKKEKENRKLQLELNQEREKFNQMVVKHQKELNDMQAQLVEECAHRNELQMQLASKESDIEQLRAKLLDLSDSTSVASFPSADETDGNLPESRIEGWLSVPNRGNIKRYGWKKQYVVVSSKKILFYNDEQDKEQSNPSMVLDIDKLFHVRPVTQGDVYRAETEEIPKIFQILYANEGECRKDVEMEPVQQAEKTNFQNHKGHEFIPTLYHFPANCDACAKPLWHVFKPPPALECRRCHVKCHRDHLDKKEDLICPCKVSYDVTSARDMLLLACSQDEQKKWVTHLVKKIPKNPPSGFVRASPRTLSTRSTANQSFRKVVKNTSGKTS
Rho kinase 2, sequence (O75116 whole entry): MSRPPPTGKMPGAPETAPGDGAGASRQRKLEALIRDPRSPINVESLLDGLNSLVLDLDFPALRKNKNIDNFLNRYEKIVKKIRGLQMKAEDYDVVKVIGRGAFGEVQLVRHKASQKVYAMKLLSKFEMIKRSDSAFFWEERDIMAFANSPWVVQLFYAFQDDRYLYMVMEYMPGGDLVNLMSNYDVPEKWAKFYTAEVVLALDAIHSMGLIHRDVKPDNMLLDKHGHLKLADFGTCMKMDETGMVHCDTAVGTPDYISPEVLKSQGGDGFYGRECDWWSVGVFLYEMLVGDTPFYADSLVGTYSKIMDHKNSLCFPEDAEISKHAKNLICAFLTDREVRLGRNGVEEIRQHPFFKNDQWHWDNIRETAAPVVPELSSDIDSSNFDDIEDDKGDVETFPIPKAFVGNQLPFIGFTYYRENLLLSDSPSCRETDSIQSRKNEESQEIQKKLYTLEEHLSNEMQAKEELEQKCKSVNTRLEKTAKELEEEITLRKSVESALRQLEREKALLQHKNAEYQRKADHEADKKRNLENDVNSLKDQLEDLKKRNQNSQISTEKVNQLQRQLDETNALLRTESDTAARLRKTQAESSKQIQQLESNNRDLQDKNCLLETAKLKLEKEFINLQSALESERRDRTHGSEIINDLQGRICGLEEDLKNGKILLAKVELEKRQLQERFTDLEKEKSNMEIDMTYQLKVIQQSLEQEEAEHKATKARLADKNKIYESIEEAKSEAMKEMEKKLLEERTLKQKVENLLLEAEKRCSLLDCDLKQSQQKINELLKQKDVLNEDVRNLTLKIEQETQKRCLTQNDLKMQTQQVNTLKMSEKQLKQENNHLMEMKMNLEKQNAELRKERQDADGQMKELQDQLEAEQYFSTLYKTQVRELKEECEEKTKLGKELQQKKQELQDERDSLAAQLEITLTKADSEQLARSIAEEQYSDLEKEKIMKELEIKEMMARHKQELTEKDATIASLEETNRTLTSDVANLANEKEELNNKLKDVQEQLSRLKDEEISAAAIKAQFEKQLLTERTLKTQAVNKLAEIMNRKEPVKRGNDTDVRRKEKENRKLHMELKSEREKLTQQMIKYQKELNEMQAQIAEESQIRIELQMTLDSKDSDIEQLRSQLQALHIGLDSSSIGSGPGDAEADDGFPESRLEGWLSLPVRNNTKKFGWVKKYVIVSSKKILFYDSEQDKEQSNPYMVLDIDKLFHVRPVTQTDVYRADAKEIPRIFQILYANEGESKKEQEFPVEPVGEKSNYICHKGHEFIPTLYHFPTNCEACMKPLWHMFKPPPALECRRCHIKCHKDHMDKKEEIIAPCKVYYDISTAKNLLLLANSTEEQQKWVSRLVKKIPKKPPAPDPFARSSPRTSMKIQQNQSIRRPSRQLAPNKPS

| Compound | Ki [1] [nM] | Ki [2] [nM] |
| --- | --- | --- |
| CC1=C(C(=O)Nc2ccc3cnccc3c2)C(CCc2ccccc2)n2nc(CO)cc2N1 (centres unmarked) [Example 53, 2-(hydroxymethyl)-N-(isoquinolin-6-yl)-5-methyl-7-phenethyl-4,7-dihydropyrazolo[1,5-a]pyrimidine-6-carboxamide] | < 50 | < 50 |
| CC1=C(C(=O)Nc2ccc3cnccc3c2)C(c2ccc(C(F)(F)F)c(F)c2)n2nc(C(=O)NCCN3CCCCC3)cc2N1 (single isomer, unassigned) [77A] | > 500 | > 500 |
| CC1=C(C(=O)Nc2ccc3cnccc3c2)C(c2ccc(C(F)(F)F)c(F)c2)n2nc(CN3CCCC3)cc2N1 (centres unmarked) [Example 102, 7-(3-fluoro-4-(trifluoromethyl)phenyl)-N-(isoquinolin-6-yl)-5-methyl-2-(pyrrolidin-1-ylmethyl)-4,7-dihydropyrazolo[1,5-a]pyrimidine-6-carboxamide] | < 50 | < 50 |
| CC(=O)N1CCN(Cc2cc3n(n2)C(c2ccc(C(F)(F)F)c(F)c2)C(C(=O)Nc2ccc4cnccc4c2)=C(C)N3)CC1 (centres unmarked) [Example 109, 2-((4-acetylpiperazin-1-yl)methyl)-7-(3-fluoro-4-(trifluoromethyl)phenyl)-N-(isoquinolin-6-yl)-5-methyl-4,7-dihydropyrazolo[1,5-a]pyrimidine-6-carboxamide] | < 50 | < 50 |
| CC1=C(C(=O)Nc2ccc3[nH]ncc3c2)C(c2ccc(F)cc2)n2nc(C(=O)O)cc2N1 (centres unmarked) [Example 75, 6-((1H-indazol-5-yl)carbamoyl)-7-(4-fluorophenyl)-5-methyl-4,7-dihydropyrazolo[1,5-a]pyrimidine-2-carboxylic acid] | < 50 | < 50 |
| CC1=C(C(=O)Nc2ccc3cnccc3c2)C(c2ccc(C(F)(F)F)c(F)c2)n2nc(C(=O)N(C)CCCN(C)C)cc2N1 (centres unmarked) [Example 89, N2-(3-(dimethylamino)propyl)-7-(3-fluoro-4-(trifluoromethyl)phenyl)-N6-(isoquinolin-6-yl)-N2,5-dimethyl-4,7-dihydropyrazolo[1,5-a]pyrimidine-2,6-dicarboxamide] | < 50 | < 50 |
| COC1CN(Cc2cc3n(n2)C(c2ccc(C(F)(F)F)c(F)c2)C(C(=O)Nc2ccc4cnccc4c2)=C(C)N3)C1 (centres unmarked) [Example 100, 7-(3-fluoro-4-(trifluoromethyl)phenyl)-N-(isoquinolin-6-yl)-2-((3-methoxyazetidin-1-yl)methyl)-5-methyl-4,7-dihydropyrazolo[1,5-a]pyrimidine-6-carboxamide] | < 50 | < 50 |
| COCC1=C(C(=O)Nc2ccc3cnccc3c2)C(c2ccc(C(F)(F)F)c(F)c2)n2nc(CO)cc2N1 (centres unmarked) [Example 119, 7-(3-fluoro-4-(trifluoromethyl)phenyl)-2-(hydroxymethyl)-N-(isoquinolin-6-yl)-5-(methoxymethyl)-4,7-dihydropyrazolo[1,5-a]pyrimidine-6-carboxamide] | < 50 | < 50 |
| CC1=C(C(=O)Nc2ccc3cnccc3c2)C(c2ccc(C)c(F)c2F)n2nc(CN(C)C)cc2N1 (centres unmarked) [Example 121, 7-(2,3-difluoro-4-methylphenyl)-2-((dimethylamino)methyl)-N-(isoquinolin-6-yl)-5-methyl-4,7-dihydropyrazolo[1,5-a]pyrimidine-6-carboxamide] | < 50 | < 50 |
| CC1=C(C(=O)Nc2ccc3cnccc3c2)C(c2ccc(C)cc2F)n2nc(CO)cc2N1 (centres unmarked) [Example 59, 7-(2-fluoro-4-methylphenyl)-2-(hydroxymethyl)-N-(isoquinolin-6-yl)-5-methyl-4,7-dihydropyrazolo[1,5-a]pyrimidine-6-carboxamide] | < 50 | < 50 |
| CC1=C(C(=O)Nc2ccc3cnccc3c2)C(c2ccc(C(F)(F)F)c(F)c2)n2nc(NC(=O)CN3CCCC3)cc2N1 (single isomer, unassigned) [132A] | < 50 | < 50 |
| CC1=C(C(=O)Nc2ccc3[nH]ncc3c2)C(c2ccc(F)cc2)n2nnnc2N1 (single isomer, unassigned) [Example 23B, 7-(4-fluorophenyl)-N-(1H-indazol-5-yl)-5-methyl-4,7-dihydrotetrazolo[1,5-a]pyrimidine-6-carboxamide] | 50 to 500 | 50 to 500 |
| CC1=C(C(=O)Nc2ccc3[nH]ncc3c2)C(c2ccc(F)cc2)n2nc(C(=O)N3CCOCC3)cc2N1 (centres unmarked) [Example 90, 7-(4-fluorophenyl)-N-(1H-indazol-5-yl)-5-methyl-2-(morpholine-4-carbonyl)-4,7-dihydropyrazolo[1,5-a]pyrimidine-6-carboxamide] | < 50 | < 50 |
| CC1=C(C(=O)Nc2ccc3cnccc3c2)C(c2ccc(C(F)(F)F)c(F)c2)n2nc(CN3CC(CN(C)C)C3)cc2N1 (centres unmarked) [Example 106, 2-((3-((dimethylamino)methyl)azetidin-1-yl)methyl)-7-(3-fluoro-4-(trifluoromethyl)phenyl)-N-(isoquinolin-6-yl)-5-methyl-4,7-dihydropyrazolo[1,5-a]pyrimidine-6-carboxamide] | < 50 | < 50 |
| CC1=C(C(=O)Nc2ccc3cnccc3c2)C(c2ccc(C(F)(F)F)c(F)c2)n2nc(C(=O)NCCC(=O)N3CCCC3)cc2N1 (centres unmarked) [Example 127, 7-(3-fluoro-4-(trifluoromethyl)phenyl)-N6-(isoquinolin-6-yl)-5-methyl-N2-(3-oxo-3-(pyrrolidin-1-yl)propyl)-4,7-dihydropyrazolo[1,5-a]pyrimidine-2,6-dicarboxamide] | < 50 | < 50 |
| CC1=C(C(=O)Nc2ccc3cnccc3c2)C(c2ccc(C(F)(F)F)c(F)c2)n2nc(C(=O)N(C)CCN3CCCCC3)cc2N1 (single isomer, unassigned) [Example 78A, 7-(3-fluoro-4-(trifluoromethyl)phenyl)-N6-(isoquinolin-6-yl)-N2,5-dimethyl-N2-(2-(piperidin-1-yl)ethyl)-4,7-dihydropyrazolo[1,5-a]pyrimidine-2,6-dicarboxamide] | 50 to 500 | < 50 |
| CC1=C(C(=O)Nc2ccc3cnccc3c2)C(c2cnc(-c3ccccc3)o2)n2nc(CO)cc2N1 (centres unmarked) [Example 49, 2-(hydroxymethyl)-N-(isoquinolin-6-yl)-5-methyl-7-(2-phenyloxazol-5-yl)-4,7-dihydropyrazolo[1,5-a]pyrimidine-6-carboxamide] | 50 to 500 | < 50 |
| CC1=C(C(=O)Nc2ccc3[nH]ncc3c2)C(c2ccc(Cl)nc2)n2nc(C(F)(F)F)cc2N1 (single isomer, unassigned) [Example 32B, 7-(6-chloropyridin-3-yl)-N-(1H-indazol-5-yl)-5-methyl-2-(trifluoromethyl)-4,7-dihydropyrazolo[1,5-a]pyrimidine-6-carboxamide] | < 50 | < 50 |
| CC1=C(C(=O)Nc2ccc3cnccc3c2)C(c2ccc(C(F)(F)F)c(F)c2)n2nc(N)cc2N1 (centres unmarked) [Example 130, 2-Amino-7-(3-fluoro-4-(trifluoromethyl)phenyl)-N-(isoquinolin-6-yl)-5-methyl-4,7-dihydropyrazolo[1,5-a]pyrimidine-6-carboxamide] | < 50 | < 50 |
